From patent publication US5348952A, “β-lactam derivatives of the cephem sulphone type” (Farmitalia Carlo Erba S.R.L., priority 1989, dated 1994)
Read-outs that look alike come from different tables or passages of the source.

What was measured:
[1] = target: T1, human leukocyte elastase (HLE) (Homo sapiens, UniProt P08246); test: Inhibition of HLE activity, kinetic parameters (Protocol B); assay type: biochemical; conditions: for Ki: steady state, read-out: "Potency" K1^ (apparent dissociation constant of the HLE-inhibitor complex at steady state, Ki^ss)
T1 construct: purchased Calbiochem Lot 702038
T1 sequence (P08246 30-267): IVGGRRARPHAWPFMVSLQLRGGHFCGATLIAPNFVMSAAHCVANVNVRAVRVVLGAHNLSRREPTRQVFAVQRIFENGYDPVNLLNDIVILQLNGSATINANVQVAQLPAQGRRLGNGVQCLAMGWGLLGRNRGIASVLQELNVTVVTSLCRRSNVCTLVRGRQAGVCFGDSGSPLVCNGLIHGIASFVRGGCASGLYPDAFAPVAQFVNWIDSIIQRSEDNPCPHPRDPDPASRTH
Description: Protocol B--Inhibition of HLE activity (Calbiochem, Lot 702038) was determined at 37° C., 0.027M pH 7.4 phosphate buffer, 1% DMSO, 1% MeCN, NaCl (I=15), by monitoring the release of 7-amino-4-methylcoumarin (fluorescence detection) from N-methoxysuccinyl-alanyl-prolyl-valyl-7-amido-4-methylcoumarin as substrate, according to the equations: [formula] wherein: [P], [I], [S]=product, inhibitor and substrate concentration
km =Michaelis constant for the enzyme-substrate pair (independently determined under the same experimental conditions).

[2] = target: porcine pancreatic elastase, PPE (Sus scrofa, UniProt P00772); test: Inhibition of PPE activity (Protocol A); assay type: biochemical; conditions: 30° C., 0.05M pH 7.4 phosphate buffer, 2.5% MeCN; 50% reduction of enzyme activity 6.4 minutes after zero time; read-out: PPE-inhibitory activity IC50 (converted)
Chain of porcine pancreatic elastase, PPE (P00772 27-266): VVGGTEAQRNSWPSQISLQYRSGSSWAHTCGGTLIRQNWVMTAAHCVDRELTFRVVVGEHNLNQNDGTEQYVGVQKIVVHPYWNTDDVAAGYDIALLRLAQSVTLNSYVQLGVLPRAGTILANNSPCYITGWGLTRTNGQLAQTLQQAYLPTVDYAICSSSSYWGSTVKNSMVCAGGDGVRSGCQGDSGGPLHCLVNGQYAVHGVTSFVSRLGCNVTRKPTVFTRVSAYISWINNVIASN
Description: To illustrate this point, Table 1 reports the results of our preliminary screening test (carried out with porcine pancreatic elastase, PPE), wherein four representative compounds of the present invention (formula I) are compared with the corresponding 2-unsubstitued compounds of formula II (References A and B).
Protocol A--Inhibition of PPE activity was determined at 30° C., 0.05M pH 7.4 phosphate buffer, 2.5% MeCN, by monitoring the release of p-nitroaniline (410 nm, Carlo Erba Strumentazione Spectracomp spectrophotometer) from the substrate (N-t-Boc-alanyl-alanyl-prolyl-alanine-p-nitroanilide, 0.2 mM initial concentration).

[3] = 37° C., 0.027M pH 7.4 phosphate buffer, 1% DMSO, 1% MeCN, read-out: "Efficacy" Kon (rate of formation of the HLE-inhibitor complex)
[4] = 37° C., 0.027M pH 7.4 phosphate buffer, 1% DMSO, 1% MeCN

IC50 [2] | kon [1, 3] | Ki [1, 4] | Compound | kon ([1]; pH 7.4, read-out: "Efficacy" Kon (rate of formation of the HLE-inhibitor complex))
 |  |  | CO[C@H]1C(=O)N2C(C(=O)N3CCCC3)=C(CSc3nc(=O)c(O)nn3C)CS(=O)(=O)[C@H]12 [Merck L-659,286, reference compound] | 1500 M⁻¹ s⁻¹
6.54 µM |  |  | CC1=C(C(=O)C(C)(C)C)N2C(=O)[C@H](Cl)[C@H]2S(=O)(=O)C1 [Reference A, reference compound] | 
6.64 µM |  |  | CO[C@H]1C(=O)N2C(C(=O)C(C)(C)C)=C(C)CS(=O)(=O)[C@H]12 [Reference B, reference compound] | 
4.11 µM |  |  | CC1=C(C(=O)OC(C)(C)C)N2C(=O)[C@H](Cl)[C@H]2S(=O)(=O)C1Sc1nc2ccccc2s1 (some centres unmarked) [Reference C, reference compound] | 
12.8 µM | 500 M⁻¹ s⁻¹ | 0.038 µM | COC(=O)C1=C(C)C(Sc2nnnn2C)S(=O)(=O)[C@@H]2[C@@H](OC)C(=O)N12 (some centres unmarked) [Reference D, reference compound] | 
0.0963 µM | 90000 M⁻¹ s⁻¹ | 0.0083 µM | CO[C@H]1C(=O)N2C(C(=O)C(C)(C)C)=C(C)C(Sc3nnnn3C)S(=O)(=O)[C@H]12 (stereo partly drawn) [n° 1, 4-tert-Butylcarbonyl-7α-methoxy-3-methyl-2-(1-methyl-1,2,3,4-tetrazol-5-yl)thio-3-cephem 1,1-dioxide] | 
0.0715 µM |  |  | CC1=C(C(=O)C(C)(C)C)N2C(=O)[C@H](Cl)[C@H]2S(=O)(=O)C1Sc1nc(=O)c(OC(c2ccccc2)c2ccccc2)nn1C (stereo partly drawn) [n° 4, 4-Tert-butylcarbonyl-7α-chloro-3-methyl-2-(2-methyl-5-oxo-6-benzhydryloxy-2,5-dihydro 1,2,4-triazin-3-yl-)thio-3-cephem 1,1-dioxide] | 
0.0756 µM |  |  | CC1=C(C(=O)C(C)(C)C)N2C(=O)[C@H](Cl)[C@H]2S(=O)(=O)C1Sc1nc(=O)c(O)nn1C (stereo partly drawn) [n° 5, 4-tert-butylcarbonyl-7α-chloro-3-methyl-2-(2-methyl-5-oxo-6-hydroxy-2,3-dihydro-1,2,4-triazin-3-yl)-thio-3-cephem 1,1-dioxide] | 
 | 11000 M⁻¹ s⁻¹ | 0.018 µM | CO[C@H]1C(=O)N2C(C(=O)C(C)(C)C)=C(C)C(Sc3nnnn3CCCC(=O)O)S(=O)(=O)[C@H]12 (stereo partly drawn) [n° 7, 4-tert-Butylcarbonyl-7α-methoxy-3-methyl-2-[1-(3-carboxy-1-propyl)-1,2,3,4-tetrazol-5-yl]thio-3-cephem 1,1-dioxide] | 
0.0654 µM | 25000 M⁻¹ s⁻¹ | 0.026 µM | CO[C@H]1C(=O)N2C(C(=O)C(C)(C)C)=C(C)C(Sc3nc(=O)c(O)nn3C)S(=O)(=O)[C@H]12 (stereo partly drawn) [n° 9, 4-tert-Butylcarbonyl-7α-methoxy-3-methyl-2-(2-methyl-5-oxo-6-hydroxy-2,5-dihydro-1,2,4-triazin-3-yl)thio-3-cephem 1,1-dioxide] | 
